Strand notation (5' to 3'): a small letter for the sugar, then the base; units joined by * are phosphorothioate-linked, units joined directly phosphodiester-linked; [ ] holds rarer units or linkages, { } end groups; capitals alone tell only the bases. [PN] = cyclic guanidine phosphoramidate internucleoside linkage; [ms] = mesyl phosphoramidate linkage; e = 2'-O-(2-methoxyethyl) (MOE); k = constrained ethyl (cEt); [5mC] = 5-methylcytosine; d = 2'-deoxy (DNA)
Tests used:
human APOE RNA [1] = test: Duration of action study in APOE C57BL/6NTac-Apoeem7250 knock-in mice (Example 16); format: in vivo; settings: 300 μg ICV
Experimental: Modified oligonucleotides described above were tested in the APOE C57BL/6NTac-Apoeem7250 knock-in mouse model described above.
APOE C57BL/6NTac-Apoeem7250 knock-in mice were divided into groups of 2-4 mice each. Each mouse received a single intracerebroventricular (ICV) bolus of 300 μg of modified oligonucleotide. A group of 2-4 mice received a single ICV bolus with PBS as a negative control.
Mice were sacrificed at various timepoints as indicated in the table below and RNA was extracted from cortical brain tissue and spinal cord for quantitative real-time RT-PCR analysis of RNA expression of APOE using primer probe set RTS3073 (described herein above). APOE RNA levels were normalized to mouse Ppia. Mouse Ppia was amplified using primer probe set m_cyclo24 (described herein above). Results are presented as percent human APOE RNA relative to the amount of human APOE RNA in PBS treated animals, (% control). Each experiment is identified in separate tables below.

human APOE RNA [2] = test: Activity in APOE C57BL/6NTac-Apoeem7250 knock-in mice, single ICV bolus, 4 weeks (Example 10); format: in vivo; settings: single ICV bolus 300 μg, 4 weeks post treatment, normalized to mouse Ppia
Method in brief: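 Knock-in mice (2–4 per group) received one 300 μg ICV bolus of oligonucleotide or PBS. After four weeks, human APOE RNA in cortex and spinal cord measured by RT-qPCR (primer probe set RTS3073), normalized to mouse Ppia, expressed as % of PBS controls.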

human APOE RNA [3] = test: Activity in APOE C57BL/6NTac-Apoeem7250 knock-in mice, single ICV bolus, 8 weeks (Example 11); format: in vivo; settings: single ICV bolus 300 μg, 8 weeks post treatment, normalized to mouse Ppia
Method in brief: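 Human APOE knock-in C57BL/6NTac mice given one ICV bolus of 300 μg oligonucleotide; PBS-dosed group as control. At 8 weeks, cortex and spinal cord RNA measured by qRT-PCR (human probe RTS3073), normalized to mouse Ppia, expressed as % of PBS control.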

human APOE RNA [4] = test: Dose-dependent inhibition of human APOE RNA in HepG2 cells, electroporation, 50,000 cells per well, RT-PCR normalized to GAPDH (Example 4, Tables 8-10); format: cell-based; settings: HepG2 cells, electroporation, Table 8; for APOE RNA (% UTC) 5 nM / APOE RNA (% UTC) 13 nM / APOE RNA (% UTC) 33 nM / APOE RNA (% UTC) 82 nM / APOE RNA (% UTC) 205 nM / APOE RNA (% UTC) 512 nM / IC50: 24-hour treatment; for APOE RNA (% UTC) 1,280 nM: 24-hour treatment, 1,280 nM; for APOE RNA (% UTC) 3,200 nM: 24-hour treatment, 3,200 nM; for APOE RNA (% UTC) 8,000 nM: 24-hour treatment, 8,000 nM; for APOE RNA (% UTC) 20,000 nM: 24-hour treatment, 20,000 nM; for IC50: reduction of human APOE RNA
Method in brief: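 HepG2 cells, 50,000 per well, electroporated with modified oligonucleotide at various concentrations. APOE RNA quantified by RT-PCR with human primer probe set RTS3073, normalized to GAPDH. Values are percent APOE RNA relative to untreated control cells.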

human APOE RNA [5] = test: Activity in APOE C57BL/6NTac-Apoeem7250 knock-in mice, single ICV bolus, 20 weeks (Example 13); format: in vivo; settings: single ICV bolus 300 μg, 20 weeks post treatment, normalized to mouse Ppia
Method in brief: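 Knock-in mice (n=4) given a single ICV bolus of 300 μg oligonucleotide, PBS as control. After 20 weeks, human APOE RNA in cortex and spinal cord measured by RT-qPCR, normalized to mouse Ppia, expressed as % of PBS-treated animals.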

human APOE RNA [6] = test: Activity in APOE C57BL/6NTac-Apoeem7250 knock-in mice, single ICV bolus, 16 weeks (Example 12); format: in vivo; settings: single ICV bolus 300 μg, 16 weeks post treatment, normalized to mouse Ppia
Method in brief: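 Knock-in mice (3-4 per group) received one ICV bolus of 300 μg oligonucleotide, PBS as control. After 16 weeks, human APOE RNA in cortex and spinal cord measured by RT-qPCR, normalized to mouse Ppia, and reported as % of PBS control.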

Row | Substance | APOE RNA (% control) Cortex (human APOE RNA [1]; 14 days post-dose) | APOE RNA (% control) Cortex (human APOE RNA [2]) | APOE RNA (% control) Spinal Cord (human APOE RNA [2]) | APOE RNA (% control) Cortex (human APOE RNA [3]) | APOE RNA (% control) Spinal Cord (human APOE RNA [3]) | APOE RNA (% UTC) 5 nM (human APOE RNA [4]) | APOE RNA (% UTC) 13 nM (human APOE RNA [4]) | APOE RNA (% UTC) 33 nM (human APOE RNA [4]) | APOE RNA (% UTC) 82 nM (human APOE RNA [4]) | APOE RNA (% UTC) 205 nM (human APOE RNA [4]) | APOE RNA (% UTC) 512 nM (human APOE RNA [4]) | APOE RNA (% UTC) 1,280 nM (human APOE RNA [4]) | APOE RNA (% UTC) 3,200 nM (human APOE RNA [4]) | APOE RNA (% UTC) 8,000 nM (human APOE RNA [4]) | APOE RNA (% UTC) 20,000 nM (human APOE RNA [4]) | IC50 (human APOE RNA [4]) | APOE RNA (% control) Cortex (human APOE RNA [5]) | APOE RNA (% control) Spinal Cord (human APOE RNA [5]) | APOE RNA (% control) Cortex (human APOE RNA [6]) | APOE RNA (% control) Spinal Cord (human APOE RNA [6]) | other results
1 | 1721308: 6-10-4 MOE gapmer CTTGGTGAATCTTTATTAAA, linkages s[pn][pn][pn]oossssssszzsoss (e[5mC]*eT[PN]eT[PN]eG[PN]eGeTdG*dA*dA*dT*d[5mC]*dT*dT*dT[ms]dA[ms]dT*eTeA*eA*eA) [compound 1721308] | 48 % control | – | – | – | – | – | – | – | – | – | – | – | – | – | – | – | – | – | – | – | APOE RNA (% control) Cortex (human APOE RNA [1]; 112 days post-dose): 85 % control; APOE RNA (% control) Spinal Cord (human APOE RNA [1]; 14 days post-dose): 45 % control; APOE RNA (% control) Spinal Cord (human APOE RNA [1]; 112 days post-dose): 42 % control
2 | 1721305: 6-10-4 MOE gapmer TTGGTGAATCTTTATTAAAC, linkages s[pn][pn][pn]oossssssssss[pn]ss (eT*eT[PN]eG[PN]eG[PN]eTeGdA*dA*dT*d[5mC]*dT*dT*dT*dA*dT*dT*eA[PN]eA*eA*e[5mC]) [compound 1721305] | 52 % control | – | – | – | – | – | – | – | – | – | – | – | – | – | – | – | – | – | – | – | APOE RNA (% control) Cortex (human APOE RNA [1]; 112 days post-dose): 81 % control; APOE RNA (% control) Spinal Cord (human APOE RNA [1]; 14 days post-dose): 37 % control; APOE RNA (% control) Spinal Cord (human APOE RNA [1]; 112 days post-dose): 40 % control
3 | 1721306: 6-10-4 MOE gapmer TTGGTGAATCTTTATTAAAC, linkages s[pn][pn][pn]oosssssszzss[n]ss (as printed) (sugars from the 5' end e6 d10 e4, all C 5-methyl, backbone not given here; further chemistry not fully specified) [compound 1721306] | 58 % control | – | – | – | – | – | – | – | – | – | – | – | – | – | – | – | – | – | – | – | APOE RNA (% control) Cortex (human APOE RNA [1]; 112 days post-dose): 89 % control; APOE RNA (% control) Spinal Cord (human APOE RNA [1]; 14 days post-dose): 63 % control; APOE RNA (% control) Spinal Cord (human APOE RNA [1]; 112 days post-dose): 60 % control
4 | 1778125: modified oligonucleotide complementary to human APOE RNA (eA*e[5mC]eTeTeGeG*dT*dG[ms]dA[ms]dA*dT*d[5mC]*dT*dT*dT*dA[ms]kTkT*eA*eA; antisense) [compound 1778125] | – | 40 % control | 52 % control | 59 % control | 37 % control | 108 % UTC | 100 % UTC | 77 % UTC | 74 % UTC | 63 % UTC | 39 % UTC | 22 % UTC | 17 % UTC | 5 % UTC | 3 % UTC | 320 nM | 81 % control | 49 % control | 75 % control | 42 % control | –
5 | 1778127: modified oligonucleotide complementary to human APOE RNA (eA*e[5mC]eTeTkGkG*dT*dG[ms]dA[ms]dA*dT*d[5mC]*dT*dT*dT*dA[ms]kTeT[ms]eA[ms]eA; antisense) [compound 1778127] | – | 32 % control | 53 % control | 28 % control | 14 % control | 98 % UTC | 88 % UTC | 85 % UTC | 82 % UTC | 55 % UTC | 31 % UTC | 30 % UTC | 16 % UTC | 14 % UTC | 4 % UTC | 310 nM | 57 % control | 43 % control | 48 % control | 25 % control | –
6 | 1778114: modified oligonucleotide complementary to human APOE RNA (eA*e[5mC]eTeTkG*kG*dT*dG[ms]dA[ms]dA*dT*d[5mC]*dT*dT*dT*dA[ms]eTeT*eA*eA; antisense) [compound 1778114] | – | 37 % control | 57 % control | 47 % control | 32 % control | 78 % UTC | 82 % UTC | 78 % UTC | 78 % UTC | 67 % UTC | 45 % UTC | 42 % UTC | 20 % UTC | 11 % UTC | 7 % UTC | 430 nM | 56 % control | 26 % control | 52 % control | 27 % control | –
7 | 1778129: modified oligonucleotide complementary to human APOE RNA (eA*e[5mC]eTeTeG*kG*dT*dG[ms]dA[ms]dA*dT*d[5mC]*dT*dT*dT*dA[ms]kT*kT*eA*eA; antisense) [compound 1778129] | – | 25 % control | 47 % control | 19 % control | 9 % control | 124 % UTC | 105 % UTC | 110 % UTC | 77 % UTC | 60 % UTC | 44 % UTC | 29 % UTC | 9 % UTC | 14 % UTC | 2 % UTC | 410 nM | 52 % control | 24 % control | 34 % control | 14 % control | –

From US20250353873A1, “COMPOUNDS AND METHODS FOR MODULATING APOE EXPRESSION” (Ionis Pharmaceuticals, Inc., priority 2024, published 2025)
